In US10718770B2, “Methods for screening compounds for treating or preventing a viral infection or a virus-related condition” (ABIVAX, priority 2015, dated 2020):

What was measured:
[1] = tested on: primary macrophages; experiment: Cell viability of primary macrophages under treatment; format: cell-based, human; details: data not shown
[2] = tested on: YU2 HIV-1 virus; experiment: Humanized mice infected with YU2 HIV-1 virus, viral load; format: in vivo, mouse (NSG humanized); details: after 30 days of 40 mg/kg daily
Description: (§1) FIG. 7. Efficacy of Compound 1 to inhibit viral replication in humanized mice. A) Reconstituted SCID mice were infected with JRCSF HIV-1 strain by intraperitoneal injection. Control group received by gavage labrafil and 5% DMSO (n=15) and treated group 20 mg/kg b.i.d of Compound 1 in labrafil and 5% DMSO (n=14) for 15 days. Two independent experiments were performed with 5 and 10 reconstituted mice for each group. Viral load was assessed by measuring viral RNA using the Amplicor HIV-1 Monitor from Roche. B) FACS analysis was performed on peritoneal wash at day 15 post-treatment to assess the CD8/CD4 ratio. C) Engrafted NSG humanized mice were treated by oral gavage with Compound 1 at either 20 mg or 40 mg/kg once a day for 30 days and indicated lymphocyte populations (CD45+; CD4+ and CD8+) were monitored by FACS analysis. […] Viral load was assessed by measuring viral RNA using the Amplicor HIV-1 Monitor from Roche. […]
(§2) Briefly, newborn (<5 days old) NSG mice received sub-lethal (1 Gy) total body irradiation with a Cs source, and then received […] transduced or untransduced CD34+ human HSCs using a 50 μl Hamilton syringe via the intrahepatic (i.h.) route. […] Mice were monitored three times a week for symptoms or signs of adverse events, according to a standard score sheet. […]

[3] = Lymphocyte populations in engrafted humanized mice treated for 30 days; format: in vivo; details: one month, 20 mg/kg or 40 mg/kg, compared to controls without treatment
Description: as §1, §2

[4] = tested on: HIV-1 strain YU2; experiment: HIV-1 p24 production in infected monocyte derived-macrophages; format: cell-based; details: Human immunodeficiency virus 1, Primary macrophage, read-out: inhibition levels of virus replication (p24)
Excerpt: FIG. 5. Potency of indole derivatives to inhibit HIV-1 production in PBMC- and macrophages-infected cells. A) HIV-1 strain Ada-MR5 was used to infect triplicate of activated PBMCs from different donors (stimulated for two days with PHA and IL2) in the absence or presence of increasing concentrations of Compound 1. Supernatant was harvested 6 days post-infection (pi) and viral capsid protein p24 antigen was quantitated using standard ELISA protocol. Each point represents 6 donors. B) HIV-1 strain YU2 was used to infect triplicate of monocyte derived-macrophages from different donors in the absence or presence of increasing concentrations of Compound 1. Supernatant was harvested 8 days pi and viral capsid protein p24 antigen was quantitated using standard ELISA protocol. Each point represents 8 donors.
To generate monocyte derived macrophages (MDMs), monocytes were isolated using CD14 microbeads (catalog no. 130-050-201; Miltenyi) and cultured in X-VIVO10 medium (Lonza) supplemented with GM-CSF 1000 U/ml and M-CSF 100 ng/ml for 6 days. Monocytes were seeded at a cell count of 50′000 cells per well in a 96 well plate. After 6 days medium was replaced with X-VIVO10 w/o Cytokines. […]
Cells were treated with 0.01 μM up to 30 μM and p24 antigen levels were monitored in culture supernatant over a 12 day period. […]

Structure (SMILES): FC(F)(F)Oc1ccc(Nc2ccc3cccc(Cl)c3n2)cc1 [Compound 1, 8-chloro-N-(4-(trifluoromethoxy)phenyl)quinolin-2-amine]
- cell viability [1]: not decreased
- time the viral load remained low after treatment termination [2]: at least 50 days
- engraftment values of CD45+ cells and ratio of CD8+/CD4+ [3]: neither alters engraftment values of CD45+ cells nor the ratio of CD8+/CD4+
- inhibition at 0.1 µM [4]: ≤ 90%
